Source: patent US20180369186A1, “METHOD FOR MODULATING AUTOPHAGY AND APPLICATIONS THEREOF” (JAWAHARLAL NEHRU CENTRE FOR ADVANCED SCIENTIFIC RESEARCH, priority 2015, published 2018)

Experiments:
[1] = system: α-synuclein-EGFP; experiment: α-synuclein-EGFP degradation assay in yeast; type: cell-based, S. cerevisiae; conditions: 50 μM
Description: Subsequent degradation of α-synuclein-EGFP levels are analyzed using immunoblotting (FIG. 9A).
Yeast cultures after respective treatments are washed, mounted on agarose (2%) pad and imaged. Images are acquired using DeltaVision Elite widefield microscope (API, GE) with following filters: DAPI (390/18 and 435/48), FITC (490/20 and 529/38), TRITC (542/27 and 594/45) and Cy5 (632/22 and 676/34). Images are processed using DV SoftWoRX software. Autophagosome (yellow) and autolysosome (red) are counted using Cell Counter plug-in in imager software (NIH) and graphically represented as fold difference versus untreated (FIGS. 4A, B, C and D).
After inducing α-synuclein-EGFP aggregates in the corresponding yeast strains driven by galactose promoter, the protein expression is turned off by adding dextrose in the medium. Then, α-synuclein-EGFP aggregates degradation by XCT 790 are assessed by collecting cells treated with and without XCT 790 (50 μM) for 0 and 24 h. Subsequently, the protein levels are analyzed using immunoblotting.
The appropriate yeast strains (A600=3) are mixed in trichloroacetic acid (12.5%) and then stored at −80° C. Then, the samples are thawed on ice, centrifuged (16000×g, 15 min) and the pellets are washed twice with ice-cold acetone (80%). Pellets are air dried, resuspended in lysis solution (0.1 N NaOH and 1% SDS) and Laemmli buffer and boiled for 15 min.
After respective treatments, the yeast cultures were washed, seeded on agarose (2%) pad and then imaged.

[2] = system: HeLa cells (autophagosomes and autolysosomes); experiment: Tandem RFP-GFP-LC3B (traffic light) assay in HeLa cells; type: cell-based, human
Description: Transfection is done on a 60 mm dish with HeLa cells at 60-70% confluency. Cells were transfected with tandem RFP-GFP-MAP1LC3B construct (Addgene plasmid #21074) using 5 μl of Lipofectamine 2000 (11668-019, Invitrogen) and 2.5 μg of DNA (2:1 ratio) diluted in 100 μl of OPTI-MEM (31985-070, Invitrogen) separately. 72 hours after transfection cells are either left untreated or treatment with various concentrations of Bay11-7082 ZPCK is done for 2 hours. Starvation is induced by treating cells with Earle's balanced salt solution (EBBS). After treatment, cells are fixed in 4% paraformaldehyde and permeabilized using 0.25% Triton X-100, The coverslip is mounted with […] antifade reagent (H-1000, Vector laboratories). Imaging for HeLa cells is carried out using Delta vision microscope (Olympus 60×/1.4, Plan ApoN, excitation and emission filter Cy5, FITC and TRITC, polychroic Quad).
For tandem RFP-EGFP-LC3 assay, sub-confluent cells are seeded in 60 mm dishes, transfected with ptf LC3 construct and allowed to express for 24 h. Later, cells are trypsinized, reseeded (10^5 cells) and allowed to attach on cover slips in a 12 well plate.
For mammalian cell microscopy, after 2 h of treatment, coverslips are fixed using 4% paraformaldehyde (PFA) (Sigma) and permeabilized using Triton X-100 (0.2%, HiMedia). Coverslips are mounted using antifade, Vectashield (Vector laboratories). For antibody staining, coverslips are blocked in 5% BSA for 1 h, incubated in primary antibody overnight and subsequent probing with fluorescent conjugated antibody. Coverslips are mounted using antifade, Vectashield (Vector laboratories).
Images are acquired using DeltaVisionElitewidefield microscope (API, GE) with following filters: DAPI (390/18 and 435/48), FITC (490/20 and 529/38), TRITC (542/27 and 594/45) and Cy5 (632/22 and 676/34). Images are processed using DV SoftWoRX software. Autophagosome (yellow) and autolysosome (red) are counted using Cell Counter plug-in in ImageJ software (NIH) and graphically represented as fold difference versus untreated (FIG. 3E).
Sub-confluent HeLa and/or SH-SY5Y cells are seeded into 60 mm cell culture dishes, then transfected with ptf LC3 construct and/or siRNA and allowed to express for 48 h. Cells are trypsinized, seeded again on poly-D-lysine coated cover slips in a 12 or 24 well plates and allowed to attach. After appropriate treatments, the coverslips containing cells are processed for imaging. For immunofluorescent antibody staining, the cover slips are incubated in primary antibody at 4° C. for overnight followed by secondary antibody incubation at room temperature.
For imaging the mammalian cells, after appropriate treatments, coverslips containing cells are fixed using 4% paraformaldehyde (PFA) (Sigma) and then permeabilized using Triton X-100 (0.2%, HiMedia). On slide, coverslips are mounted using antifade, Vectashield mounting medium (Vector laboratories). For antibody staining, coverslips are blocked using 5% BSA for 1 h at room temperature, then incubated with primary antibody at 4° C., overnight and then subsequently probed with corresponding fluorescent dye conjugated secondary antibody.

[3] = system: GFP-Atg8; experiment: GFP-Atg8 processing assay (general autophagy); type: cell-based, Saccharomyces cerevisiae
Description: Saccharomyces cerevisiae strain containing the GFP-Atg8 (pRS 316 vector backbone) plasmid is grown in synthetic complete medium lacking uracil (SC-URA) under appropriate conditions (30° C. 250 rpm). From this, a secondary culture is inoculated at A600 nm=0.2 and grown as above until A600 nm reached ˜0.65. The cultures are transferred to SD-N (nitrogen starvation) medium at A600 nm=3, separately with and without the compounds, and samples are collected at different time intervals. Sample preparation is done by the TCA precipitation method and immunoblotting is performed using standard methods.
Yeast strains (A600=3) are resuspended in trichloroacetic acid (12.5%) and stored at −80° C. for at least half an hour. Samples are thawed on ice, centrifuged (16000×g, 10 min) and pellet is washed twice with ice-cold acetone (80%). Pellets are air dried, resuspended in lysis (1% SDS and 0.1 N NaOH) solution and Laemmii buffer and boiled for 10 min.

[4] = starvation, 4 h and 6 h, 50 μM, versus untreated
[5] = HeLa, 2 h, 2.5 μM Bay11, 25 μM ZPCK
[6] = HeLa, ERRα Flag transfected 48 h, 5 μM, 2 h

## O=C1Nc2cc(Br)ccc2/C1=C1/Nc2ccccc2/C1=N\O [6-Bio, (2′Z,3′E)-6-Bromoindirubin-3′-oxime]
[1]; atg1Δ
  α-synuclein-EGFP clearance in autophagy mutant atg1Δ: not in an autophagy mutant
[1]; non-starvation and starvation, 0, 6, 12 and 24 h
  α-synuclein-EGFP levels in wild type cells: time-dependent and significant decrease
[2]; HeLa, 16° C. (endocytosis reduced), control vs treated
  fusion between autophagosomes and lysosomes at 16° C.: ~8 fold
[2]; HeLa, 37° C., control vs treated
  fusion between autophagosomes and lysosomes at 37° C.: ~10 fold
[2]; shRNA GSK3B silenced cells
  autolysosomes in GSK3B silenced cells vs only treated cells: significantly reduced
[3]; growth condition, 6 h, 50 μM
  autophagy induction / flux, growth condition: dramatically induces autophagy
[3]; growth condition, 50 μM, versus untreated
  increase in autophagic flux, growth condition: approximately 3 fold
[3]; [4]
  increase in autophagic flux, starvation condition: 2 fold
  increase in autophagy induction, starvation condition: 2 fold

## Cc1ccc(S(=O)(=O)/C=C/C#N)cc1 [Bay11, 3-[(4-methylphenyl)sulfonyl]-(2E)-propenenitrile]
[2]; [5]
  number of autolysosomes (mRFP+/GFP− puncta): decreased
  number of autophagosomes (mRFP+/GFP+ puncta): decreased the number of autophagosomes
[2]; HeLa, with Bafilomycin A1 (400 nM)
  step of action relative to Bafilomycin A1 (BFA): step prior to BFA action
[3]; starvation
  GFP-Atg8 labelled autophagosomes, fluorescence microscopy: accumulation of punctate structures outside the vacuole
  release of GFP from GFP-Atg8 (general autophagy): slower release of GFP

## COc1cc(C=C(C#N)C(=O)Nc2nnc(C(F)(F)F)s2)ccc1OCc1ccc(C(F)(F)F)cc1C(F)(F)F [XCT 790, 3-[4-(2,4-Bis-trifluoromethylbenzyloxy)-3-methoxyphenyl]-2-cyano-N-(5-trifluoromethyl-1,3,4-thiadiazol-2-yl)acrylamide]
[1]; 24 h, untreated vs treated
  clearance of α-synuclein-EGFP in wild-type strain: ~2.5 fold
[1]; microscopy, WT α-synuclein-EGFP, untreated vs treated
  vacuolar free EGFP (vacuolar degradation of α-synuclein-EGFP): ~14 fold
[2]; HeLa, 5 μM, 2 h
  autolysosome numbers, fold vs control: ~2 fold
  autophagosomes, fold vs control: ~5 fold
[2]; [6]
  less autolysosomes in ERRα over expressed cells, vs untreated: ~2 fold
  more autophagosomes in ERRα over expressed cells, vs untreated: ~2 fold
